From US9469650B2, “Melampomagnolide B derivatives” (BOARD OF TRUSTEES OF THE UNIVERSITY OF ARKANSAS, priority 2013, dated 2016)

Columns and labels:
HOP-92 = assay: panel of 60 human tumor cell lines, growth inhibition (Non-Small Cell Lung Cancer); details: HOP-92
OVCAR-8 = assay: panel of 60 human tumor cell lines, growth inhibition (Ovarian Cancer); details: OVCAR-8
SF-539 = assay: panel of 60 human tumor cell lines, growth inhibition (CNS Cancer); details: SF-539
CCRF-CEM = assay: panel of 60 human tumor cell lines, growth inhibition (Leukemia)
RXF 393 = assay: panel of 60 human tumor cell lines, growth inhibition (Renal Cancer); details: RXF 393
K-562 = assay: panel of 60 human tumor cell lines, growth inhibition (Leukemia); details: K-562
HCT-15 = assay: panel of 60 human tumor cell lines, growth inhibition (Colon Cancer); details: HCT-15
SR = assay: panel of 60 human tumor cell lines, growth inhibition (Leukemia)
SF-268 = assay: panel of 60 human tumor cell lines, growth inhibition (CNS Cancer); details: SF-268

C=C1C(=O)O[C@H]2[C@H]1CC/C(COC(=O)N1CCC(F)(F)CC1)=C\CC[C@@]1(C)O[C@@H]21 [JVM 2-66]
GI50 (HOP-92): 1.45 µM | TGI (HOP-92): 3.89E−6 | Percent Growth (HOP-92; Log10 Concentration −4.0): −94% | Percent Growth (HOP-92; Log10 Concentration −5.0): −48% | Percent Growth (HOP-92; Log10 Concentration −6.0): 69% | Percent Growth (HOP-92; Log10 Concentration −7.0): 92% | Percent Growth (HOP-92; Log10 Concentration −8.0): 95% | GI50 (OVCAR-8): 2.83 µM | TGI (OVCAR-8): 1.01E−5 | Percent Growth (OVCAR-8; Log10 Concentration −4.0): −86% | Percent Growth (OVCAR-8; Log10 Concentration −6.0): 91% | Percent Growth (OVCAR-8; Log10 Concentration −7.0): 96% | Percent Growth (OVCAR-8; Log10 Concentration −8.0): 98% | GI50 (SF-539): 1.98 µM | TGI (SF-539): 459E−6 | Percent Growth (SF-539; Log10 Concentration −4.0): −88% | Percent Growth (SF-539; Log10 Concentration −5.0): −46% | Percent Growth (SF-539; Log10 Concentration −6.0): 90% | Percent Growth (SF-539; Log10 Concentration −7.0): 85% | Percent Growth (SF-539; Log10 Concentration −8.0): 96% | GI50 (CCRF-CEM): 0.682 µM | TGI (CCRF-CEM): 3.41E−6 | Percent Growth (CCRF-CEM; Log10 Concentration −4.0): −53% | Percent Growth (CCRF-CEM; Log10 Concentration −5.0): −36% | Percent Growth (CCRF-CEM; Log10 Concentration −6.0): 41% | Percent Growth (CCRF-CEM; Log10 Concentration −7.0): 97% | Percent Growth (CCRF-CEM; Log10 Concentration −8.0): 97% | GI50 (RXF 393): 1.2 µM | TGI (RXF 393): 2.53E−6 | Percent Growth (RXF 393; Log10 Concentration −4.0): −92% | Percent Growth (RXF 393; Log10 Concentration −5.0): −92% | Percent Growth (RXF 393; Log10 Concentration −6.0): 62% | Percent Growth (RXF 393; Log10 Concentration −7.0): 95% | Percent Growth (RXF 393; Log10 Concentration −8.0): 100% | GI50 (K-562): 3.45 µM | TGI (K-562): 3.61E−5 | Percent Growth (K-562; Log10 Concentration −4.0): −10% | Percent Growth (K-562; Log10 Concentration −5.0): 13% | Percent Growth (K-562; Log10 Concentration −6.0): 93% | Percent Growth (K-562; Log10 Concentration −7.0): 95% | Percent Growth (K-562; Log10 Concentration −8.0): 104% | GI50 (HCT-15): 1.47 µM | TGI (HCT-15): 3.84E−6 | Percent Growth (HCT-15; Log10 Concentration −4.0): −86% | Percent Growth (HCT-15; Log10 Concentration −5.0): −50% | Percent Growth (HCT-15; Log10 Concentration −6.0): 70% | Percent Growth (HCT-15; Log10 Concentration −7.0): 94% | Percent Growth (HCT-15; Log10 Concentration −8.0): 100% | GI50 (SR): 1.38 µM | TGI (SR): 7.24E−6 | Percent Growth (SR; Log10 Concentration −4.0): −38% | Percent Growth (SR; Log10 Concentration −5.0): −10% | Percent Growth (SR; Log10 Concentration −6.0): 60% | Percent Growth (SR; Log10 Concentration −7.0): 87% | Percent Growth (SR; Log10 Concentration −8.0): 94% | GI50 (SF-268): 10.7 µM | TGI (SF-268): 2.47E−5 | Percent Growth (SF-268; Log10 Concentration −4.0): −84% | Percent Growth (SF-268; Log10 Concentration −5.0): 54% | Percent Growth (SF-268; Log10 Concentration −6.0): 95% | Percent Growth (SF-268; Log10 Concentration −7.0): 93% | Percent Growth (SF-268; Log10 Concentration −8.0): 95%
